Results as given in patent US12310967B2, “Compositions and methods of treatment for neurological disorders comprising motor neuron diseases” (Gliapharm SA, priority 2017, dated 2025).
pEC50: −log10 of the molar value.

Legend:
[1] = test system: cerebral extracellular lactate; experiment: In vivo pharmacodynamics - lactate biosensors; set-up: species or system mouse; details: 100 mg/kg per os, AUC ratio vs vehicle
Procedure: Extracellular levels of lactate were monitored in vivo using lactate biosensors (Pinnacle Technology), according to the manufacturer's instructions. Cannulae were surgically implanted in mice cerebral cerebral motor cortex areas M1/M2 (coordinates: +1.94 mm (to bregma), lateral −1.4 mm (to mideline), ventral −1.0 mm (to dura)) 5-7 days before administration of the compounds. Drugs were administered per os as previously described, and cerebral levels of extracellular lactate were dynamically recorded for 6 hours. Mice were administered vehicle alone first, followed 3 hours later by vehicle or drug (10 or 100 mg/kg). Area Under the Curve (AUC) quantifying the fluctuations of extracellular lactate concentrations for each of the compound tested was calculated using Graphad Prism and the ratio of AUC after drug over Vehicle administration was calculated. Groups of 8 male mice were used for each condition.
To measure biological effect of lead molecules in vivo in the brain, lactate levels were quantified after administration of the drug by using lactate biosensors implanted in the cortex of freely moving mice.

[2] = In vivo pharmacokinetics (microdialysis of prefrontal cortex and plasma); set-up: species or system mouse; details: gavage 100 mg/kg; therapeutic range 100 nM to 1 uM
Procedure: Mice were anesthetized using isoflurane (2% and 800 mL/min 02). Before surgery, Finadyne (1 mg/kg, s.c.) was administered for analgesia during surgery and the post-surgical recovery period. A mixture of bupivacaine and epinephrine was used for local anesthesia of the incision site of the periost of the skull.
The animals were placed in a stereotaxic frame (Kopf instruments, USA). MetaQuant microdialysis probes with a 3 mm exposed polyacrylonitrile membrane (MQ-PAN 3/3, Brainlink, the Netherlands) were implanted into the prefrontal cortex (coordinates for the tip of the probe: AP=+2.0 mm (to bregma), lateral=−0.7 mm (to midline), ventral=−3.3 mm (to dura), with the incisor bar set at 0.0 mm and an angle of 8°). All coordinates were based on “The mouse brain in stereotaxic coordinates” by Paxinos and Franklin (2004). The probes were attached to the skull with a stainless steel screw and dental cement (Fuji Plus Capsules, Henry Schein, the Netherlands).
In the same surgical procedure, a catheter was placed into the jugular vein to accommodate blood sampling. An indwelling cannula was inserted into the right jugular vein, and exteriorized through an incision on top of the skull. […]
PK was measured for GP-04, GP-05, GP-07, GP-R1 and GP-P1 in the prefrontal cortex and plasma of wild type C56Bl/6 mice by CRO Brainsonline.

primary mouse astrocytes = experiment: Extracellular lactate quantification, Example 2; assay type: cell-based; details: Astrocyte, 3 nM to 30 μM, 1.5 h, read-out: EC50 release of lactate
Procedure: Primary cultures of cerebrocortical astrocytes were obtained from 1 to 2-day-old OF1 mouse pups (Charles River). Briefly, cortices were isolated and minced in small pieces under a dissecting microscope. The cells were incubated for 30 min at 37° C. in a solution containing 20 U/ml papain, 1 mM L-cysteine and 10 kU/ml DNase I. After dissociation, papain activity was stopped by the addition of fetal calf serum (FCS). Single-cell suspension was then obtained by mechanical dissociation, which consisted in cells trituration in a DMEM D7777 medium supplemented with 44 mm NaHCO3, 10 ml/L antibiotic/antimycotic solution and 10% FCS. […]
Secretion of L-lactate was measured in the extracellular medium of 96-well plated astrocytes after 90 min stimulation (at 37° C., in 5% CO2/95% air conditions) with Vehicle (DMSO), the compounds of the invention (100 nM to 100 μM) or positive control. […] To quantify lactate concentrations in the extracellular medium, 200 μl of a 0.2M Glycine-semicarbazide buffer (pH 10) containing 3 mM NAD and 14 U/ml LDH was added to each well of a 96-well plate containing 30 μl aliquots of extracellular medium. […] Fluorescence intensity (340 nm excitation/450 nm emission), which represents the amount of NADH produced, was measured, and lactate concentration values were determined relative to a standard curve of L-lactate concentrations. […]

SMILES | cerebral lactate [1] | levels in the prefrontal cortex [2] | pEC50 (primary mouse astrocytes)
N#Cc1ccc(C(=O)N2CCC(Nc3ncnc4c3CCC4)C2)cc1 (stereo not drawn) [T636-2387] | Significant increase |  | 
CC(=O)N1CCc2sc(S(=O)(=O)N3CCN(c4ccccc4C)CC3)cc2C1 [P025-0159] | Significant increase | need chemical improvement | 
Cc1ccccc1NC(=O)C1CCCN(c2ncnc3oc(C)c(C)c23)C1 (stereo not drawn) [F228-0422] |  |  | 6.23
COc1cc(C)c(Cl)cc1S(=O)(=O)NCc1ccncc1 [T5580243] | Significant increase | at therapeutic range | 
